Experiments:
Assay in all cases: relative viability (nuclei count vs DMSO), 5 days (fraction); higher = more cells survive
Decitabine + Navitoclax = compound: Nc1ncn([C@H]2C[C@H](O)[C@@H](CO)O2)c(=O)n1 [Decitabine] + CC1(C)CCC(c2ccc(Cl)cc2)=C(CN2CCN(c3ccc(C(=O)NS(=O)(=O)c4ccc(N[C@H](CCN5CCOCC5)CSc5ccccc5)c(S(=O)(=O)C(F)(F)F)c4)cc3)CC2)C1 [Navitoclax] (partner 0.5 µM)
In short: (§1)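 Values are medians from duplicate plates. Each reflects relative viability, defined as the nuclei count of treated wells over that of vehicle wells. Lung cancer cell lines in 1536-well plates were pin-tool dosed one day after seeding with one drug alone or with a fixed anchor-drug dose plus five library-drug doses (not always all listed) in √10 steps, then fixed, stained and imaged at 4× after 5 days.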

Cediranib + Lapatinib = compound: COc1cc2c(Oc3ccc4[nH]c(C)cc4c3F)ncnc2cc1OCCCN1CCCC1 [Cediranib] + CS(=O)(=O)CCNCc1ccc(-c2ccc3ncnc(Nc4ccc(OCc5cccc(F)c5)c(Cl)c4)c3c2)o1 [Lapatinib] (partner 2 µM)
In short: as §1

Cediranib + AZD7762 = compound: COc1cc2c(Oc3ccc4[nH]c(C)cc4c3F)ncnc2cc1OCCCN1CCCC1 [Cediranib] + NC(=O)Nc1cc(-c2cccc(F)c2)sc1C(=O)N[C@H]1CCCNC1 [AZD7762] (partner 0.2 µM)
In short: as §1

[1] = compound: O=C(C[C@H]1NCCC[C@@H]1O)Cn1cnc2cc(Br)c(Cl)cc2c1=O (racemic) [Halofuginone] + CCNC(=O)c1noc(-c2cc(C(C)C)c(O)cc2O)c1-c1ccc(CN2CCOCC2)cc1 [Luminespib] (partner 0.01 µM)
In short: as §1

Cell Line | relative viability (Decitabine + Navitoclax; first compound 0.04 µM) | relative viability (Decitabine + Navitoclax; first compound 0.1265 µM) | relative viability (Decitabine + Navitoclax; first compound 0.4 µM) | relative viability (Decitabine + Navitoclax; first compound 1.265 µM) | relative viability (Decitabine + Navitoclax; first compound 4 µM) | relative viability (Cediranib + Lapatinib; first compound 0.04 µM) | relative viability (Cediranib + Lapatinib; first compound 0.1265 µM) | relative viability (Cediranib + Lapatinib; first compound 0.4 µM) | relative viability (Cediranib + Lapatinib; first compound 1.265 µM) | relative viability (Cediranib + Lapatinib; first compound 4 µM) | relative viability (Cediranib + AZD7762; first compound 0.04 µM) | relative viability (Cediranib + AZD7762; first compound 0.1265 µM) | relative viability (Cediranib + AZD7762; first compound 0.4 µM) | relative viability (Cediranib + AZD7762; first compound 1.265 µM) | relative viability (Cediranib + AZD7762; first compound 4 µM) | relative viability ([1]; first compound 0.001 µM) | relative viability ([1]; first compound 0.003162 µM) | relative viability ([1]; first compound 0.01 µM) | relative viability ([1]; first compound 0.03162 µM) | relative viability ([1]; first compound 0.1 µM)
HCC-366 | 0.92 | 0.906 | 0.382 | 0.232 | 0.133 | 1.08 | 0.479 | 0.983 | 0.957 | 1.23 | 0.41 | 0.314 | 0.181 | 0.376 | 0.266 | – | – | – | – | –
HCC-827 | – | 0.471 | 0.404 | 0.269 | 0.939 | 0.203 | – | 0.178 | 0.194 | 0.208 | 0.226 | 0.455 | 0.193 | 0.163 | 0.198 | 0.453 | 0.473 | 0.478 | 0.705 | 0.504
HOP-62 | 0.572 | 0.388 | 0.15 | 0.172 | 0.14 | 1.15 | – | 0.879 | 1.01 | 1.35 | 0.612 | 0.397 | 0.263 | 0.446 | 0.712 | 0.817 | 0.96 | 0.902 | 0.921 | 0.818
IA-LM | 0.415 | 0.313 | 0.156 | 0.162 | 0.169 | 0.933 | 0.938 | 0.673 | 0.732 | 0.794 | – | – | – | – | – | – | – | – | – | –
LCLC-103H | – | – | – | – | – | – | – | – | – | – | 0.829 | 1.01 | 0.724 | 0.826 | 0.858 | 0.948 | 1.1 | 0.968 | 0.989 | 0.805
NCI-H358 | – | – | – | – | – | 0.478 | 0.666 | 0.454 | 0.419 | 0.466 | 0.613 | 0.496 | 0.478 | 0.596 | 0.502 | 0.306 | 0.455 | 0.229 | 0.205 | 0.154
NCI-H441 | 0.258 | 0.293 | 0.274 | 0.259 | 0.223 | – | – | – | – | – | 1.26 | 1.25 | 1.07 | 1.16 | 1.18 | 0.352 | 0.292 | 0.487 | 0.306 | 0.213
NCI-H520 | 0.941 | 0.804 | 0.615 | 0.819 | 0.467 | 0.977 | – | 0.605 | 0.759 | 0.785 | – | – | – | – | – | 0.232 | 0.241 | 0.185 | 0.206 | 0.236
NCI-H522 | – | – | – | – | – | – | – | – | – | – | 0.84 | 0.643 | 0.887 | 0.729 | 0.744 | 1.14 | 1.81 | 1.12 | 1.28 | 1.09
NCI-H650 | – | – | – | – | – | 0.956 | 0.444 | 0.913 | 0.8 | 0.938 | 0.879 | 0.654 | 0.953 | 0.944 | 1.13 | 0.793 | 0.738 | 0.822 | 0.667 | 0.59
NCI-H661 | – | – | – | – | – | 0.552 | 0.738 | 0.403 | 0.494 | 0.544 | – | – | – | – | – | 0.83 | 0.953 | 0.88 | 0.696 | 0.504
NCI-H1299 | 1.04 | 1.03 | 1.02 | 0.898 | 0.848 | 1.02 | 0.958 | 0.995 | 0.933 | 0.983 | – | – | – | – | – | – | – | – | – | –
